Test results reported in patent publication US20230301300A1, “HERBICIDAL COMPOSITIONS” (SYNGENTA CROP PROTECTION AG, priority 2020, published 2023).

Key:
Format in all cases: in vivo
[1] = tested on: Glycine max (GLXMA); assay: B2 Post-Emergence Efficacy - Test 2; details: 15 days after application; for Herbicidal activity GLXMA: 0-100 scale; for Herbicidal activity on a 0-100 scale, GLXMA: 0=no damage, 100=total kill
Description: (§1) Seeds of a variety of test species (see Table B1) were sown in standard soil in pots. After cultivation for 12 days (post-emergence) under controlled conditions in a glasshouse (at 24/18° C. or 20/16° C., at day/night; 16 hours light; 65% humidity), the plants were sprayed with an aqueous spray solution derived from the formulation of the technical active ingredient dissolved in IF50 (see Table B2 for composition) and adjuvant (Genapol X080) was added to the spray solution at a rate of 0.2% v/v.
(§2) After application, the test plants were grown in a glasshouse under controlled conditions (as above) and watered twice daily. Herbicidal activity was evaluated 15 days after application on a 0-100 scale. The results, where 0=no damage to test plant and 100=total kill of test plant are shown below in Tables 8 to 11.

[2] = tested on: Orysa sativa (ORYSA); assay: B2 Post-Emergence Efficacy - Test 2; details: 15 days after application; for Herbicidal activity ORYSA: 0-100 scale; for Herbicidal activity on a 0-100 scale, ORYSA: 0=no damage, 100=total kill
Description: as §1, §2

[3] = tested on: Abutilon theophrasti (ABUTH); assay: B2 Post-Emergence Efficacy - Test 2; details: 15 days after application, 0-100 scale
Description: as §1, §2

[4] = tested on: Setaria faberi (SETFA); assay: B2 Post-Emergence Efficacy - Test 2; details: 15 days after application, 0=no damage, 100=total kill
Description: as §1, §2

[5] = tested on: Brachiaria plantaginea (BRAPL); assay: B2 Post-Emergence Efficacy - Test 2; details: 15 days after application, 0=no damage, 100=total kill
Description: as §1, §2

[6] = tested on: Echinochloa crus galli (ECHCG); assay: B2 Post-Emergence Efficacy - Test 2; details: 15 days after application, 0=no damage, 100=total kill
Description: as §1, §2

[7] = tested on: Sinapis arvensis (SINAR); assay: B2 Post-Emergence Efficacy - Test 2; details: 15 days after application, 0-100 scale
Description: as §1, §2

[8] = tested on: Ipomoea hederacea (IPOHE); assay: B2 Post-Emergence Efficacy - Test 2; details: 15 days after application, 0-100 scale
Description: as §1, §2

[9] = tested on: Avena fatua (AVEFA); assay: B2 Post-Emergence Efficacy - Test 2; details: 15 days after application, 0-100 scale
Description: as §1, §2

[10] = tested on: Hordeum vulgare (HORVW); assay: B2 Post-Emergence Efficacy - Test 2; details: 15 days after application, 0-100 scale
Description: as §1, §2

[11] = tested on: Amaranthus retroflexus (AMARE); assay: B2 Post-Emergence Efficacy - Test 2; details: 15 days after application, 0-100 scale
Description: as §1, §2

[12] = tested on: Setaria faberi (SETFA); assay: B1 Post-Emergence Efficacy - Test 1; details: 1000 g/ha, after 13 days, five point scale
Summary of the method: (§3)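 Post-emergence spray, 1000 g/ha, acetone/water 50:50 + 0.5% Tween 20, on plants 8 d after sowing in soil pots. Glasshouse 24/16° C., 14 h light, 65% humidity, watered twice daily. % damage at 13 d, five-point score.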

[13] = tested on: Lolium perenne (LOLPE); assay: B1 Post-Emergence Efficacy - Test 1; details: 1000 g/ha, after 13 days, five point scale
Summary of the method: as §3

[14] = tested on: Ipomoea hederacea (IPOHE); assay: B1 Post-Emergence Efficacy - Test 1; details: 1000 g/ha, after 13 days, five point scale
Summary of the method: as §3

[15] = tested on: Amaranthus retoflexus (AMARE); assay: B1 Post-Emergence Efficacy - Test 1; details: 1000 g/ha, after 13 days, five point scale
Summary of the method: as §3

[16] = tested on: Solanum nigrum (SOLNI); assay: B1 Post-Emergence Efficacy - Test 1; details: 1000 g/ha, after 13 days, five point scale
Summary of the method: as §3

[17] = tested on: Echinochloa crus-galli (ECHCG); assay: B1 Post-Emergence Efficacy - Test 1; details: 1000 g/ha, after 13 days, five point scale
Summary of the method: as §3

Cc1nn(C)c(=O)c(-c2c(F)ccc(Cl)c2CCc2ccc(F)cc2)c1OC(=O)C(C)C [Compound 1.125, [5-[3-chloro-6-fluoro-2-[2-(4-fluorophenyl)ethyl]phenyl]-1,3-dimethyl-6-oxo-pyridazin-4-yl] 2-methylpropanoate]
Herbicidal activity GLXMA ([1]; 15 g/Ha): 40 | Herbicidal activity on a 0-100 scale, GLXMA ([1]; 15 g/Ha): 40 | Herbicidal activity GLXMA ([1]; 30 g/Ha): 70 | Herbicidal activity on a 0-100 scale, GLXMA ([1]; 30 g/Ha): 70 | Herbicidal activity GLXMA ([1]; 60 g/Ha): 70 | Herbicidal activity on a 0-100 scale, GLXMA ([1]; 60 g/Ha): 70 | Herbicidal activity GLXMA ([1]; 250 g/Ha): 90 | Herbicidal activity on a 0-100 scale, GLXMA ([1]; 250 g/Ha): 90 | Herbicidal activity GLXMA ([1]; 500 g/Ha): 90 | Herbicidal activity on a 0-100 scale, GLXMA ([1]; 500 g/Ha): 90 | Herbicidal activity ORYSA ([2]; 15 g/Ha): 0 | Herbicidal activity on a 0-100 scale, ORYSA ([2]; 15 g/Ha): 0 | Herbicidal activity ORYSA ([2]; 30 g/Ha): 0 | Herbicidal activity on a 0-100 scale, ORYSA ([2]; 30 g/Ha): 0 | Herbicidal activity ORYSA ([2]; 60 g/Ha): 0 | Herbicidal activity on a 0-100 scale, ORYSA ([2]; 60 g/Ha): 0 | Herbicidal activity ORYSA ([2]; 125 g/Ha): 0 | Herbicidal activity on a 0-100 scale, ORYSA ([2]; 125 g/Ha): 0 | Herbicidal activity ORYSA ([2]; 250 g/Ha): 0 | Herbicidal activity on a 0-100 scale, ORYSA ([2]; 250 g/Ha): 0 | Herbicidal activity ORYSA ([2]; 500 g/Ha): 0 | Herbicidal activity on a 0-100 scale, ORYSA ([2]; 500 g/Ha): 0 | Herbicidal activity ABUTH ([3]; 15 g/Ha): 80 | Herbicidal activity ABUTH ([3]; 30 g/Ha): 90 | Herbicidal activity ABUTH ([3]; 60 g/Ha): 90 | Herbicidal activity ABUTH ([3]; 125 g/Ha): 90 | Herbicidal activity ABUTH ([3]; 250 g/Ha): 100 | Herbicidal activity ABUTH ([3]; 500 g/Ha): 100 | Herbicidal activity on a 0-100 scale, SETFA ([4]; 15 g/Ha): 0 | Herbicidal activity on a 0-100 scale, SETFA ([4]; 30 g/Ha): 10 | Herbicidal activity on a 0-100 scale, SETFA ([4]; 60 g/Ha): 20 | Herbicidal activity on a 0-100 scale, SETFA ([4]; 125 g/Ha): 20 | Herbicidal activity on a 0-100 scale, SETFA ([4]; 250 g/Ha): 20 | Herbicidal activity on a 0-100 scale, SETFA ([4]; 500 g/Ha): 100 | Herbicidal activity on a 0-100 scale, BRAPL ([5]; 15 g/Ha): 80 | Herbicidal activity on a 0-100 scale, BRAPL ([5]; 60 g/Ha): 80 | Herbicidal activity on a 0-100 scale, BRAPL ([5]; 125 g/Ha): 80 | Herbicidal activity on a 0-100 scale, BRAPL ([5]; 250 g/Ha): 70 | Herbicidal activity on a 0-100 scale, BRAPL ([5]; 500 g/Ha): 80 | Herbicidal activity on a 0-100 scale, ECHCG ([6]; 15 g/Ha): 70 | Herbicidal activity on a 0-100 scale, ECHCG ([6]; 30 g/Ha): 80 | Herbicidal activity on a 0-100 scale, ECHCG ([6]; 60 g/Ha): 80 | Herbicidal activity on a 0-100 scale, ECHCG ([6]; 125 g/Ha): 80 | Herbicidal activity on a 0-100 scale, ECHCG ([6]; 250 g/Ha): 90 | Herbicidal activity on a 0-100 scale, ECHCG ([6]; 500 g/Ha): 100 | Herbicidal activity SINAR ([7]; 15 g/Ha): 60 | Herbicidal activity SINAR ([7]; 30 g/Ha): 60 | Herbicidal activity SINAR ([7]; 60 g/Ha): 80 | Herbicidal activity SINAR ([7]; 125 g/Ha): 90 | Herbicidal activity SINAR ([7]; 250 g/Ha): 90 | Herbicidal activity SINAR ([7]; 500 g/Ha): 90 | Herbicidal activity IPOHE ([8]; 15 g/Ha): 90 | Herbicidal activity IPOHE ([8]; 30 g/Ha): 100 | Herbicidal activity IPOHE ([8]; 60 g/Ha): 100 | Herbicidal activity IPOHE ([8]; 125 g/Ha): 100 | Herbicidal activity IPOHE ([8]; 250 g/Ha): 100 | Herbicidal activity IPOHE ([8]; 500 g/Ha): 100 | Herbicidal activity AVEFA ([9]; 15 g/Ha): 30 | Herbicidal activity AVEFA ([9]; 30 g/Ha): 40 | Herbicidal activity AVEFA ([9]; 60 g/Ha): 60 | Herbicidal activity AVEFA ([9]; 125 g/Ha): 70 | Herbicidal activity AVEFA ([9]; 250 g/Ha): 70 | Herbicidal activity AVEFA ([9]; 500 g/Ha): 80 | Herbicidal activity HORVW ([10]; 15 g/Ha): 0 | Herbicidal activity HORVW ([10]; 30 g/Ha): 0 | Herbicidal activity HORVW ([10]; 60 g/Ha): 10 | Herbicidal activity HORVW ([10]; 125 g/Ha): 10 | Herbicidal activity HORVW ([10]; 250 g/Ha): 10 | Herbicidal activity HORVW ([10]; 500 g/Ha): 10 | Herbicidal activity AMARE ([11]; 15 g/Ha): 80 | Herbicidal activity AMARE ([11]; 30 g/Ha): 90 | Herbicidal activity AMARE ([11]; 60 g/Ha): 90 | Herbicidal activity AMARE ([11]; 125 g/Ha): 100 | Herbicidal activity AMARE ([11]; 250 g/Ha): 100 | Herbicidal activity AMARE ([11]; 500 g/Ha): 100 | percentage damage caused to the plant, SETFA [12]: 5 (5=80-100%) | percentage damage caused to the plant, LOLPE [13]: 5 (5=80-100%) | percentage damage caused to the plant, IPOHE [14]: 5 (5=80-100%) | percentage damage caused to the plant, AMARE [15]: 5 (5=80-100%) | percentage damage caused to the plant, SOLNI [16]: 5 (5=80-100%) | percentage damage caused to the plant, ECHCG [17]: 5 (5=80-100%)
